Results on one compound are retold here after US20220087996A1, “Histone acetylase p300 inhibitor and use thereof” (HINOVA PHARMACEUTICALS INC., priority 2018, published 2022).

The subject of experiment [1] is CWR22RV1 cells. Briefly: Compound in combination with CDK4/6 inhibitor palbociclib on proliferation of CWR22RV1 cells. The experiment is classed as cell-based, human. To be noted: for IC50: Homo sapiens, read-out: IC50 against the activity of CWR22RV1 cells. Here is the method:
The IC50 values (nM) of the compound according to the present invention, palbociclib, and the combination of the compound according to the present invention and palbociclib against CWR22RV1 cell proliferation were tested and calculated, and the detailed procedures were as follows:
(§1) 1) CWR22RV1 cells were subcultured in cell culture medium, and the cells in good growth condition were seeded in a 96-well plate, 60 μL for each well, and the cell number in each well was 2000. The plate was incubated overnight in a 37° C., 5% CO2 cell incubator. 2) The drug was prepared as 10 mM stock solution with dimethyl sulfoxide (DMSO). Prior to use, the stock solution was diluted 3 times with DMSO, and then further diluted as 3-fold gradient to obtain 9 concentration gradients. Then, each concentration of compound was diluted 200 times with the culture solution (ensuring that the DMSO concentration in the culture system was 0.1%), and two replicate wells were set for each concentration. 20 μL of diluted compound solution was added to the cell culture well (with final concentrations of 10 μM, 3.3 μM, 1.1 μM . . . ). Palbociclib was diluted with culture medium to 500 nM, 150 nM, 50 nM, 5 nM, and 20 μL diluted compound solution was added to the corresponding cell culture wells (with a final concentration of 100 nM, 30 nM, 10 nM, 1 nM). The plate was gently shaken to mix. In addition, 3 negative control wells containing only cells and 3 blank control wells containing only culture medium were included (6 wells were each added 20 μL DMSO diluted 200 times with culture medium).
(§2) (1) After culturing for 6 days, 10 μL CCK-8 was added to each well, and the plate was continually cultured in a 37° C., 5% CO2 cell incubator for 2.5 h. (2) The absorbance (OD value) was detected at 450 nm using a multifunctional microplate reader. (3) The data were analyzed by Dose-response-inhibition equation in the software GraphPad Prism6, and the IC50 value was obtained.

The subject of experiment [2] is MCF-7 cells. As to the kind of experiment: Compound in combination with CDK4/6 inhibitor palbociclib against proliferation of MCF-7 cells. The experiment is classed as cell-based. To be noted: for IC50: Homo sapiens. Here is the method: as §1, §2
Using the same method as Experimental example 4, CWR22RV1 cells were replaced with MCF-7 cells, and the IC50 values (nM) of the compound according to the present invention, palbociclib, as well as the combination of the compound according to the present invention and palbociclib against the proliferation of MCF-7 cells w ere tested and calculated.

[3] abbreviates: combination with CDK4/6 inhibitor palbociclib.

Molecules are shown by their SMILES. Like-named read-outs stand apart in the source and are kept apart here. Bounds are passed on as bounds.

A word on the IC50: it is the point on the concentration scale where inhibition reaches its midpoint.

Turning to `CNC(=O)Nc1ccc2c(c1)CC[C@@]21OC(=O)N(CC(=O)N2C(C)CC[C@H]2c2cc(F)c(F)c(F)c2)C1=O` (stereo in doubt) [Example 205, 1-((R)-3′-(2-((2S,5R)-2-(3,4,5-trifluorophenyl)-5-methylpyrrolidin-1-yl)-2-oxoethyl)-2′,4′-dioxo-2,3-dihydrospiro[indene-1,5′-oxazolidine]-5-yl)-3-methylurea], the 50% inhibitory concentration (IC50) in experiment [1] (CWR22Rv1, in combination with 1 nM palbociclib) is 130 nM; in experiment [1] (CWR22Rv1, in combination with 10 nM palbociclib) it was 110 nM; in experiment [1] (CWR22Rv1, in combination with 30 nM palbociclib), 40 nM; in experiment [1] (CWR22Rv1, in combination with 100 nM palbociclib), less than 1 nM; in experiment [1] (CWR22Rv1, single agent), 120 nM; in experiment [2] (MCF7, in combination with 10 nM palbociclib) it was 19 nM. In addition, the IC50 in experiment [2] (MCF7, in combination with 30 nM palbociclib) was found to be 1.6 nM; in experiment [2] (MCF7, in combination with 100 nM palbociclib), 1.5 nM; in experiment [2] (MCF7, single agent) it was 81 nM. Also, the “inhibitory activity on CWR22RV1 cells when combined with palbociclib, versus either agent alone” value in experiment [1] (setting [3]) was “much higher”. Further, in experiment [2] (setting [3]), the “inhibitory activity on MCF-7 cells when combined with palbociclib, versus either agent alone” value is on record as “much higher”.
